{"source": "patent US20140309295A1", "about": "“ANTIEPILEPTIC, HYPOCHOLESTEROLEMIC AND NEUROPROTECTIVE COMPOUND” (NEURON BIOPHARMA, S.A., priority 2009, published 2014)", "key": {"[1]": {"tested_on": "human neuroblastoma SK-N-MC cells", "test": "Protection against neuronal death induced by oxidative stress (xanthine/xanthine oxidase), WST-1", "type": "cell-based", "protocol": "The assay was performed on human neuroblastoma SK-N-MC cells in culture from the American Type Culture Collection (ATCC), in all cases strict rules of sterility were followed and the manipulation was performed in class II biological safety cabinets following European standard EN 12469. The cells were maintained in the following culture medium: Minimum Essential Medium Eagle (MEM) supplemented with 1 mM sodium pyruvate, 2 mM L-glutamine, 0.1 mM non-essential amino acids, 0.05 mg/ml gentamicin and 10% fetal bovine serum.\nThe inhibition caused by compound NST0037 of cell death caused by treatment with xanthine/xanthine oxidase which generates oxidative damage (causes free radicals such as hydrogen peroxide, superoxide anion, hydroxyl radical), which triggers cell death, was analyzed. These cells, not exceeding 15 passages, were seeded on 96-well plates treated for adherent cells with a cell concentration of 5×10^4 cells/well; 3 wells of the plate were seeded for each condition of the assay.\nAfter 24 hours of cell incubation at 37° C. and 5% CO2, the cell treatments were performed with 100 μl of total volume for the following conditions: • Control: culture medium (medium) • Xanthine/xanthine oxidase (XXO): medium plus 10 μM xanthine/60 mU/mL xanthine oxidase, causing the death of 50% of the cells. • XXO plus NST0037: medium plus XXO (10 μM/60 mU/mL) plus NST0037 at 1, 4, 10, 20, 40 or 100 μM.\nThe cells were incubated (at 37° C. and 5% CO2) with these treatments for 22 hours, after which time the WST-1 reagent (Roche) was added. The Test WST-1 is based on the measurement of metabolic activity. Cell damage causes the loss of the ability of cells to obtain the energy necessary to maintain their metabolic functions and cell growth, therefore the metabolically active (live) cells reduce tetrazolium salt to formazan by means of the succinate-tetrazolium reductase system (of the mitochondrial respiratory chain). The formazan which is formed can be detected colorimetrically since it has an absorbance of 440 nm. The reading was taken in a plate reader at 440 nm 2 hours after adding the reagent.\nThe assay was performed on human neuroblastoma SK-N-MC cells in culture from the American Type Culture Collection (ATCC), in all cases strict rules of sterility were followed and the manipulation was performed in class II biological safety cabinets following European standard EN 12469. […]\nThe effect of mevalonate on the protection caused by compound NST0037 against cell death caused by the treatment with xanthine/xanthine oxidase generating oxidative damage and cell death was analyzed. […]"}, "[2]": {"test": "in vitro", "details": "PAMPA, pH 7.4"}, "[3]": {"test": "Lethality by constant exposure in water (4 days) in adult zebrafish (OECD 203)", "type": "in vivo", "details": "zebrafish, in vivo; 4 days of continuous treatment in water", "protocol": "(§1) The object of this assay is to determine the acute lethal toxicity of a substance on freshwater fish. Acute toxicity is the distinguishable adverse effect induced in an organism as a result of the exposure to a given substance for a short time period (days).\n(§2) The deaths of the animals under study during the entire time of the assay were recorded as a toxicity parameter.\n(§3) To that end, the fish that survived the treatment were sacrificed at 4 days post-treatment (previously anesthetized) and the samples (whole fish) were included in paraffin. The hematoxylin-eosin staining was subsequently performed in order to conduct the histopathological studies, obtaining a minimum of 6 longitudinal sections per animal, for the purpose of collecting different study areas of the same organ. The following organs were studied: brain, kidney, pancreas, intestine, eye, gills, ovary, testicle, muscle and liver."}, "[4]": {"tested_on": "adult zebrafish", "test": "Lethality by constant exposure in water (4 days) in adult zebrafish (OECD 203)", "type": "in vivo", "details": "for histopathology: ovary / Mortality (dead animals/total): 4 days", "protocol": "as §1, §2, §3"}, "[5]": {"tested_on": "Hep G2 (human hepatocarcinoma) line", "test": "Total cholesterol levels in hepatic cell line", "type": "cell-based", "details": "HepG2, acid compounds, 20 hours, absence of FBS", "protocol": "To carry out this assay, the compounds were activated with NaOH until the lactone form was completely opened.\nBoth the Hep G2 (human hepatocarcinoma) line and the SK-N-MC (human neuroblastoma) line were obtained from the American Type Culture Collection (ATCC no. HB-8065 and HTB-10 respectively). In all cases strict rules of sterility were followed and the manipulation was performed in class II biological safety cabinets following European standard EN 12469. The cells maintained in passage were seeded in 96-well plates in MEM supplemented with 10% FBS, 2 mM L-glutamine, 1 mM sodium pyruvate, 0.1 mM non-essential amino acids and 0.05 mg/mL gentamicin. In the case of HepG2, 4×10^4 cells/well were seeded and in the case of SK-N-MC 5×10^4 cells/well were seeded. After 24 hours had elapsed from the seeding, the cells were deprived of FBS for 8 hours. The cells were then incubated with the treatments at various concentrations for 20 hours. After the incubation period, the cells were washed with PBS and lysed with a phosphate buffer with 0.5% Triton X-100. […]\nThe total cholesterol was quantified by means of enzymatic and fluorometric techniques. […] The fluorescence intensity was determined at 530 nm of excitation and 580 nm of emission by means of a fluorometer. The results were normalized by protein, which was determined by means of the BCA technique."}}}
{"molecule": "CCC(CC)C(=O)O[C@H]1C[C@@H](C)C=C2C=C[C@H](C)[C@H](CC[C@@H]3C[C@@H](O)CC(=O)O3)[C@H]21", "note": "[NST0037, (1S,2S,6R,8S,8aR)-1,2,6,7,8,8a-hexahydro-3,7-dimethyl-8-[2-[(2R,4R)-tetrahydro-4-hydroxy-6-oxo-2H-pyran-2-yl]ethyl]-1-naphthalenyl-2-ethyl-butyrate]", "values": [{"measurement": "maximum protection against death caused by XXO", "setting": "[1]; 20 μM NST0037, 10 μM xanthine/60 mU/mL xanthine oxidase, 22 h", "result": 78, "unit": "%"}, {"measurement": "protection against death caused by XXO", "setting": "[1]; 40 μM NST0037 (Example 14)", "result": 57, "unit": "%"}, {"measurement": "Papp at 18 h, 100 μM", "setting": "[2]", "result": 3.1, "unit": "×10⁻⁶ cm/s"}, {"measurement": "LD50 at 4 days", "setting": "[3]", "result": "> 100", "unit": "mg/kg"}, {"measurement": "histopathology: ovary", "setting": "[4]; 30 mg/kg", "result": "not being observed"}, {"measurement": "histopathology: ovary", "setting": "[4]; 100 mg/Kg", "result": "presented ovarian damage"}, {"measurement": "Mortality (dead animals/total)", "setting": "[4]; Dose 1 mg/kg", "result": "0/7"}, {"measurement": "Mortality (dead animals/total)", "setting": "[4]; Dose 3.2 mg/kg", "result": "0/7"}, {"measurement": "Mortality (dead animals/total)", "setting": "[4]; Dose 10 mg/kg", "result": "0/7"}, {"measurement": "Mortality (dead animals/total)", "setting": "[4]; Dose 32 mg/kg", "result": "0/7"}, {"measurement": "Mortality (dead animals/total)", "setting": "[4]; Dose 100 mg/kg", "result": "1/7"}, {"measurement": "percentage of mortality", "setting": "[4]; day 4 post-treatment (100 mg/kg group)", "result": 14, "unit": "%"}, {"measurement": "reduction of total cholesterol levels", "setting": "[5]", "result": "more potent than simvastatin"}]}
